Patent US10160771B2, “Hepatitis C virus inhibitors and uses thereof in preparation of drugs” (priority 2014, dated 2018)

Key:
[1] = Cell Titer-fluor cell activity assay in HCV-1b replicon cells (CC50); type: cell-based
Procedure, shortened: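 Con1 genotype 1b replicon cells (E1202G, T1280I, K1846T adaptive mutations), 8000 cells/well, exposed to 6-point 5-fold dilutions from 100, 10 or 1 nM top concentration in 0.5% DMSO, duplicate wells, 3 days at 37 °C. Viability read by Cell Titer-fluor (Ex 405/Em 515 nm) after 30 min; CC50 from nonlinear fit of inhibition %.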

[2] = test system: HCV genotype 1a (HCV-1a) replicon cells; assay: HCV genotype 1a replicon luciferase assay (EC50); type: cell-based, hepatitis C virus genotype 1a (H77 clone); settings: 3 days, luciferase (Bright-Glo)
Procedure, shortened: (§1)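 Stable subgenomic replicon cells (1a: H77 with K1691R, K2040R, S2204I; 1b: Con1 with E1202G, T1280I, K1846T) carrying luciferase and neo were seeded at 8000 cells/well onto compounds (5-fold, 6-point, top 100, 10 or 1 nM; 0.5% DMSO) for 3 days at 37 °C. Bright-Glo luminescence gave EC50 by nonlinear fit.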

[3] = test system: HCV genotype 1b (HCV-1b) replicon cells; assay: HCV genotype 1b replicon luciferase assay (EC50); type: cell-based, hepatitis C virus genotype 1b (Con1 clone); settings: Hepatitis C virus, 72 h, 3 days, luciferase (Bright-Glo)
Procedure, shortened: as §1

| SMILES | CC50 at 3 days [1] [nM] | EC50 ([2]; Hepatitis C virus, 72 h) [nM] | EC50 [3] [nM] | EC50 [2] [nM] |
| --- | --- | --- | --- | --- |
| COC(=O)N[C@H](C(=O)N1CCC[C@H]1c1ncc(-c2ccc(-c3ccc(-c4cnc(C5C6CCC(C6)[C@@H]5C(=O)NCc5cccnc5F)[nH]4)cc3)cc2)[nH]1)[C@@H](C)OC (stereo partly drawn) [AA_252_A] | > 1 | 1 to 10 | 0.101 to 1 |  |
| COC(=O)N[C@H](C(=O)N1CCC[C@H]1c1ncc(-c2ccc(-c3ccc(-c4cnc([C@H]5CCCC[C@@H]5C(=O)NCc5ccc(Cl)nc5)[nH]4)cc3)cc2)[nH]1)C(C)C [AA_185] | > 5 | 10 to 100 | 0.101 to 1 |  |
| COC(=O)N[C@H](C(=O)N1CCC[C@H]1c1ncc(-c2ccc(-c3ccc(-c4cnc(C5C6CCC(C6)[C@H]5C(=O)NCc5nccs5)[nH]4)cc3)cc2)[nH]1)[C@@H](C)OC (stereo partly drawn) [AA_219_A] | > 1 | 1 to 10 | 0.001 to 0.1 |  |
| COC(=O)N[C@H](C(=O)N1CCC[C@H]1c1ncc(-c2ccc(-c3ccc(-c4cnc(C5C6CCC(C6)[C@@H]5C(=O)NC(C)c5cccnc5)[nH]4)cc3)cc2)[nH]1)[C@@H](C)OC (stereo partly drawn) [AA_251_C] | > 1 | 10 to 100 | 1 to 10 |  |
| COC(=O)N[C@H](C(=O)N1CCC[C@H]1c1ncc(-c2ccc(-c3ccc(-c4cnc([C@@H]5C6CCC(C6)[C@H]5C(=O)NCc5nccs5)[nH]4)cc3)cc2)[nH]1)C(C)C (stereo partly drawn) [AA_208_B] | > 1 | 1 to 10 | 0.001 to 0.1 |  |
| COC(=O)N[C@H](C(=O)N1CCC[C@H]1c1[nH]c(-c2ccc(-c3ccc(-c4cnc([C@@H]5CCCN5C(=O)[C@@H](NC(=O)OC)[C@@H](C)O)[nH]4)cc3)cc2)c2c1CCC2)C(C)C [AG_090] | > 1 | 1 to 10 | 0.001 to 0.1 |  |
| COC(=O)N[C@H](C(=O)N1CCC[C@H]1c1ccc(-c2ccc(-c3ccc(-c4cnc([C@@H]5CCCN5C(=O)[C@@H](NC(=O)OC)C5CCCCC5)[nH]4)cc3)cc2)[nH]1)C(C)C [AG_101] | > 1 | 1 to 10 | 0.001 to 0.1 |  |
| COC(=O)N[C@H](C(=O)N1CCC[C@H]1c1ncc(-c2ccc(-c3ccc(-c4cnc([C@H]5C6CCC(C6)[C@@H]5C(=O)NCc5ccco5)[nH]4)cc3)cc2)[nH]1)C(C)C (stereo partly drawn) [AA_198_A] | > 1 | 1 to 10 | 0.001 to 0.1 |  |
| COC(=O)N[C@H](C(=O)N1CCC[C@H]1c1ncc(-c2ccc(-c3ccc(-c4cnc([C@@H]5[C@H]6CC[C@H](C6)[C@H]5C(=O)NC5(c6ccccc6)CC5)[nH]4)cc3)cc2)[nH]1)C(C)C [AA_273_ENDOA2] | > 1 | 1 to 10 | 0.001 to 0.1 |  |
| COC(=O)N[C@H](C(=O)NC1(c2ncc(-c3ccc(-c4ccc(-c5ccc([C@@H]6CCCN6C(=O)[C@@H](NC(=O)OC)[C@@H](C)OC)[nH]5)cc4)cc3)[nH]2)CC1)[C@@H](C)OC [AG_106] | > 1 | 10 to 100 | 0.001 to 0.1 |  |
| COC(=O)N[C@H](C(=O)N1CCC[C@H]1c1ncc(-c2ccc(-c3ccc(-c4cnc([C@H]5C6CCC(C6)[C@@H]5C(=O)NCc5cccnc5C5CC5)[nH]4)cc3)cc2)[nH]1)C(C)C (stereo partly drawn) [AA_234_A] | > 1 | 1 to 10 | 0.001 to 0.1 |  |
| COC(=O)N[C@H](C(=O)N1CCC[C@H]1c1ncc(-c2ccc(-c3ccc(-c4cnc([C@@H]5C6CCC(C6)[C@H]5C(=O)NCc5cnccn5)[nH]4)cc3)cc2)[nH]1)C(C)C (stereo partly drawn) [AA_206_B] | > 1 | 1 to 10 | 0.001 to 0.1 |  |
| COC(=O)N[C@H](C(=O)N1CCC[C@H]1c1ncc(-c2ccc(-c3ccc(-c4cnc(C5C6CCC(C6)[C@H]5C(=O)N[C@H](c5cccnc5)C(C)C)[nH]4)cc3)cc2)[nH]1)[C@@H](C)OC (stereo partly drawn) [AA_267_B] | > 1 |  | 0.101 to 1 | 1 to 10 |
| COC(=O)N[C@H](C(=O)N1CCC[C@H]1c1ncc(-c2ccc(-c3ccc(-c4cnc(C5C6CCC(C6)[C@H]5C(=O)N(NC(=O)OC)C(C)C)[nH]4)cc3)c(OC)c2)[nH]1)C(C)C (stereo partly drawn) [AA_190_B] | > 1 | 10 to 100 | 0.101 to 1 |  |
